Assay results published in patent US20220117972A1, “USE OF PPAR-DELTA AGONISTS IN THE TREATMENT OF MITOCHONDRIAL MYOPATHY” (Reneo Pharmaceuticals, Inc., priority 2019, published 2022).
pEC50: −log10 of the molar value. Entries after “also recorded” stand apart in the source; their conditions may differ. Where two headings read alike, the source gives them in different places.

Assays:
[1] = target: T1, hPPARα (Homo sapiens, UniProt Q07869); assay: PPAR receptor transactivation assay, human PPARα; format: cell-based
T1 construct: expressed in transfected cells; host or cells: Jump-In GripTite HEK293
T1 sequence (Q07869 239-466 limits assumed): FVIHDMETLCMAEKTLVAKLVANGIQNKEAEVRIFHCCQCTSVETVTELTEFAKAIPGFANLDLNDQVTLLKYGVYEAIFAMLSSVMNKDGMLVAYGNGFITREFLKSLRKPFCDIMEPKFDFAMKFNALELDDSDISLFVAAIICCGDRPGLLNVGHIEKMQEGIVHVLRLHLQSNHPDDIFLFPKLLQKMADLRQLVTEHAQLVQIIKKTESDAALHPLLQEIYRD
Experimental: Compound 1 was tested on all three human PPAR subtypes (hPPAR): hPPARα, hPPARγ, and hPPARδ. All assays were repeated at least three times for each subtype.
The genes of interest were synthesized and cloned into an appropriate Jump-In™ retargeting vector following the User Guide of the Jump-In™ T-REx™ HEK293 Retargeting Kit (ThermoFisher Catalog No A15008). For example, the vector will be used to transfect and retarget the Jump-In™ HEK293 GripTite™ parental cell line. Stable pools will be antibiotic-selected for about 21 days and tested for target gene expression by functional assay.
Jump-In™ GripTite™ HEK293 parental cells were plated at 60-80% confluency in a T-75 flask in growth medium without antibiotics and transfected with a 1:1 ratio of expression construct and R4 integrase expression construct (20 μg DNA total) using Lipofectamine® LTX (50 μL) and PLUS™ Reagent (20 μL). Following a 48 hours incubation, cells were selected with 600 μg/mL Geneticin® and 10 μg/mL Blasticidin for ˜21 days in growth medium.
Jump-In™ GripTite™ HEK293 rPPAR Alpha, Delta or Gamma UAS-bla-Gal4 cell pools were plated in a 384-well plate format (20,000 cells per well) in OptiMeM without FBS in replicates (n=4). Cells were allowed to adhere for 8 hours before addition of Compound 1 (1 mM top concentration, 3-fold dilutions, 10-point titration). After 16 hours, the cells were loaded with LiveBLAzer®, a fluorescent BLA substrate that gives a blue/green readout of expressing/non-expressing cells, respectively. The blue/green readout was measured on a fluorescent plate reader (Tecan Safire II).

[2] = target: T2, PPARα (UniProt Q4PNY3); assay: PPAR receptor transactivation assay, monkey PPARα; format: cell-based
T2 construct: This is inferred from the cell pool name 'UAS-bla-Gal4' and from the general description in b82 and b85
T2 sequence (Q4PNY3 1-467): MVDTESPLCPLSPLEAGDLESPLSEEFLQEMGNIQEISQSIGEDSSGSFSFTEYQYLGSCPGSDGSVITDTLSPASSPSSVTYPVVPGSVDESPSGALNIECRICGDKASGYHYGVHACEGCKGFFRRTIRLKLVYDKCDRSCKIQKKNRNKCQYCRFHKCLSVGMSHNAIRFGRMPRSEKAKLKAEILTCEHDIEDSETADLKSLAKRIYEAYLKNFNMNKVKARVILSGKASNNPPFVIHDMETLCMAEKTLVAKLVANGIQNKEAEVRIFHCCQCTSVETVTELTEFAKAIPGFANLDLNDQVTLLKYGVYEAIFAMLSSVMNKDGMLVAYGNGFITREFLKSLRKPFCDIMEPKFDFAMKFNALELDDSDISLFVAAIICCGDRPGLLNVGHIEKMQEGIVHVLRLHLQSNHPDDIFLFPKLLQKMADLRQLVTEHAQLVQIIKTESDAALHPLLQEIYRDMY

[3] = target: T3, PPARδ (Mus musculus, UniProt P35396); assay: PPAR receptor transactivation assay, mouse PPARδ; format: cell-based
T3 construct: expressed in transfected cells; host or cells: Jump-In GripTite HEK293
T3 sequence (P35396 210-438 limits assumed): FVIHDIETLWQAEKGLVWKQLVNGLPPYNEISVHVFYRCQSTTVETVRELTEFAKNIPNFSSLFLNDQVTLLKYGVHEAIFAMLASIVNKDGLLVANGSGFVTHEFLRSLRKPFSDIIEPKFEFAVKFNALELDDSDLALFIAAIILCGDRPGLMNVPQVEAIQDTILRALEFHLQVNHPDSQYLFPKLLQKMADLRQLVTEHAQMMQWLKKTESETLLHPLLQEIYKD

[4] = test system: human retinoid X receptor (hRXR); assay: human retinoid X receptor activity; format: cell-based
[5] = target: T4, FXR (Homo sapiens, UniProt Q96RI1); assay: nuclear receptor FXR activity; format: cell-based
T4 sequence (Q96RI1 1-486): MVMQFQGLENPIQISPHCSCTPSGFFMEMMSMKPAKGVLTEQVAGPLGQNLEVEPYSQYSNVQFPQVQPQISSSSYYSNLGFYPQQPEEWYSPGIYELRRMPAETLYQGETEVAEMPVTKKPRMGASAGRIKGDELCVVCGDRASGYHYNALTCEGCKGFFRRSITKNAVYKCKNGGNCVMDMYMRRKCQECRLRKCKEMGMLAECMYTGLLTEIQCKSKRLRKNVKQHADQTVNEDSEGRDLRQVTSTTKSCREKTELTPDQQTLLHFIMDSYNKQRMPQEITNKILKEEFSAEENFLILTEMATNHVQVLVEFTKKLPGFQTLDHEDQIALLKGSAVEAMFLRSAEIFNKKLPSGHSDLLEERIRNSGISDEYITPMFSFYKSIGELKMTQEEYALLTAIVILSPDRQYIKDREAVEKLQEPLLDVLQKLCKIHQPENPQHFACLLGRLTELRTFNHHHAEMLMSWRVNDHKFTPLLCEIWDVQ

[6] = test system: human muscle cell lines; assay: fatty acid oxidation in human muscle cell line; format: cell-based; conditions: in vitro
[7] = test system: rat muscle cell lines; assay: fatty acid oxidation in rat muscle cell line; format: cell-based; conditions: in vitro
[8] = test system: PGC1, CPT1b expression; assay: in vivo gene expression in mouse muscle, second study (time course); conditions: male C57BL/6 mice, 30 mg/kg once daily, at 48 hrs
Experimental: In a second study, male C57BL/6 mice were dosed once daily for four consecutive days. On the first day of treatment all mice in each group received a single dose of either the vehicle or Compound 1 at 30 mg/kg. Following the dose administration on the first day, five mice from each group were anesthetized and euthanized at each of the following time points: 1, 2, 4, 8, 24, 48, 72 and 96 hours. Animals left after the time point 24 hours received the second dose. Animals left after the time point 48 hours received the third dose. Animals left after the time point 72 hours received the fourth dose. Mice designated for time point 96 hours were euthanized on day 5.

[9] = test system: primary mitochondrial myopathy patients; assay: clinical trial for primary mitochondrial myopathy (PMM); format: in vivo, human
[10] = PMM patients, 100 mg once daily for 12 weeks

SMILES: Cc1cc(OC/C=C(/c2ccc(F)cc2)c2ccc(C#CCN3CCOCC3)cc2)ccc1OCC(=O)O [Compound 1, (E)-[4-[3-(4-Fluorophenyl)-3-[4-[3-(morpholin-4-yl)propynyl]phenyl]allyloxy]-2-methyl-phenoxy]acetic acid]
- EC50 ([1]; Human PPARα, read-out: EC50 (nM) Mean): > 10000 nM
- pEC50 ([1]; human PPARα, Example 12, read-out: EC50): < 5.00
- activity on PPARα in transactivation assays ([1]; in some cases): negligible activity
- agonist type at PPARα ([1]; in some cases): partial agonist
- EC50 [2]: > 1000 nM
- EC50 [3]: 240 nM
- hRXR activity [4]: did not show any
- activity on the nuclear receptor FXR [5]: did not show any
- fatty acid oxidation [6]: dose-dependent increase
- fatty acid oxidation [7]: dose-dependent increase
- expression of CPT1b [8]: increased the expression
- expression of PGC1 [8]: increased the expression
- Modified Fatigue Impact Scale scores [9, 10]: trends towards increases
- brief pain index (BPI) score, mean [9, 10]: decreased
- distance walked during a 12-minute walk test [9, 10]: increase the distance walked; also recorded: Improvements
- peak VO2 [9, 10]: trends towards increases
- tolerability ([9]; PMM subjects that participated in the study): well tolerated
